Laboratory results as given in patent publication US12643861B2, “Crystalline form of fluvatinib or fluvatinib methanesulfonate and preparation method therefor” (CHONGQING PHARMACEUTICAL RESEARCH INSTITUTE CO., LTD, priority 2020, dated 2026).
Structures can show the parent of a compound that is named as a salt. Where two headings read alike, the source gives them in different places. Each block holds one molecule with its values, some of them ahead of it.

Columns and labels:
Type in all cases: physicochemical
[1] = Dynamic vapor sorption (DVS) hygroscopicity
Description: At the same time, the crystalline form I of fluvatinib mesylate was tested for dynamic hygroscopicity by DVS to detect water content. […] This indicates again that the crystalline form I of fluvatinib mesylate has good stability.
The crystalline form III of fluvatinib mesylate was tested for hygroscopicity under humidity conditions of 25° C., 0-90% RH, using a dynamic moisture tester a dynamic vapor sorption (DVS) analyzer.

[2] = Stability of crystalline form I of fluvatinib mesylate stirred in acetone, ethanol, ethyl acetate, XRPD; settings: acetone or ethyl acetate, stirred 10 h at room temperature
Description: The crystalline form I of fluvatinib mesylate was stored in acetone, ethanol and ethyl acetate to investigate whether there was a crystal transformation.
3 parts of about 50 mg the crystalline form I of fluvatinib mesylate were weighed and respectively added to reaction flasks containing an appropriate amount of acetone, ethanol, or ethyl acetate solvent. The suspension samples were placed on magnetic stirrers, stirred for 10 h at room temperature, and filtered. The filter cake was dried at 40-50° C. with spinning under reduced pressure. The obtained dry samples were detected by XRPD.

[3] = Hydrothermal stability of the crystalline forms of fluvatinib mesylate, XRPD; settings: Table 11
Description: The crystalline forms I, III, IV, V, VI, and VII of fluvatinib mesylate of the present disclosure were placed in harsh environments to investigate their stability. They were placed under high temperature and high humidity conditions: 25° C. 92.5% R.H for 7 days, 40° C. 75% R.H for 14 days, and 60° C. for 14 days, and then detected by XRPD.

[4] = Stability under high temperature and high humidity for half of a month or 3 months
[5] = Crystalline form stability on tableting and storage of tablets, XRPD; settings: for crystal transformation during the process of preparing tablets: direct compression tablets, 30% crystalline form; for crystal transformation after the tablets being placed for 6 months: 40° C., 75% RH
Description: The formula amounts of the crystalline form of fluvatinib mesylate, anhydrous lactose and direct compression starch were mixed, and then mixed with magnesium stearate. The mixture was prepared into tablets by direct compression method, with each table weighed 200 mg.
The crystalline forms before and after being prepared into tablets and after the tablets being placed in 40° C., 75% RH environment for 6 months were detected by XRPD. The results are shown in FIGS. 19 and 20, wherein A, B, and C represent XRPD patterns of the crystalline form before and after being prepared into tablets and after the tablets being placed for 6 months.

[6] = Crystal transformation test of crystalline form I of fluvatinib stirred in solvents, XRPD; settings: 40° C.
Description: The crystalline form I of fluvatinib was placed in an organic solvent and a water-containing organic solvent, and stirred at 40° C. for 2 days to investigate whether there was a crystal transformation.
A number parts of about 30 mg of the crystalline form I of fluvatinib (Form I) were respectively weighed and added to different glass bottles, and added with an appropriate amount of a single organic solvent or a mixture containing water (see Table 8) to form suspensions. The above-mentioned suspension samples were placed on magnetic stirrers (40° C.) to perform a stirring test. After being stirring at 40° C. for 2 days, the suspension samples were filtered. The filter cake samples were then dried overnight in a vacuum dry box (40° C.), and the dried samples were detected by XRPD (see Table 8 and FIG. 14).

[7] = Crystal transformation of fluvatinib mesylate crystalline forms stirred in ethanol, XRPD
Description: The crystalline form of the fluvatinib methanesulfonate was investigated on its stability in ethanol, to see whether there is crystal transformation.
About 0.15 g of the crystalline forms II (Form II), III (Form III), VI (Form VI) and VII (Form VII) of the fluvatinib mesylate were weighed and respectively added to reaction flasks containing ethanol, stirred magnetically for 2 days at room temperature, and filtered. The filter cakes were dried at 40-50° C. with spinning under reduced pressure. The obtained dried samples were detected by XRPD.

[8] = High temperature suspension experiment (50° C.) in organic solvents, XRPD; settings: 25 mg, 24 hours
Description: The crystalline form III of fluvatinib mesylate was subjected to high temperature suspension experiments (50° C.), to investigate whether the crystalline form III of fluvatinib mesylate undergoes crystal transformation in various type of common organic solvents, and whether it is stable. The crystalline form III of fluvatinib mesylate was suspended in 12 types of organic solvents (in 1 mL of solvent) and water as set forth in Table 10 at a temperature of 50° C. and an amount of about 25 mg for 24 hours. The solids after being suspended in the organic solvents were detected by XRPD.

[9] = Solubility compared with lenvatinib; settings: method or value not given
[10] = Stability of crystalline form III of fluvatinib mesylate in air (oxygen gas), oxidation; settings: exposed to air
Excerpt: To investigate the stability of the crystalline form III of fluvatinib mesylate (Form III), Form III was exposed to air and contacted with oxygen.

[11] = listed as crystalline forms of fluvatinib
[12] = ethanol, stirred 2 days at room temperature
[13] = stirred in ethanol for 2-4 days

Structure (SMILES): COc1cc2nccc(Oc3ccc(NC(=O)NC4CC4)c(Cl)c3F)c2cc1C(N)=O [crystalline form I of fluvatinib mesylate] [fluvatinib methanesulfonate]
hygroscopic weight gain ([1]; 25° C./80% RH): 1.3%
crystal transformation after DVS measurements ([1]; XRPD before and after DVS): did not undergo crystal transformation
crystal transformation in single solvent [2]: maintained its form
crystal transformation under high temperature and high humidity conditions [3]: did not undergo crystal transformation
change of content of related impurities / related substances [4]: no apparent change
crystal transformation [4]: did not show crystal transformation
crystal transformation during the process of preparing tablets [5]: neither the crystalline form I of fluvatinib mesylate nor the crystalline form III of fluvatinib mesylate undergoes crystal transformation
crystal transformation after the tablets being placed for 6 months [5]: no crystal transformation occurred

Structure (SMILES): COc1cc2nccc(Oc3ccc(NC(=O)NC4CC4)c(Cl)c3F)c2cc1C(N)=O [crystalline form I of fluvatinib, 4-(2-fluoro-3-chloro-(cyclopropylaminocarbonyl)aminophenoxy)-7-methoxy-6-quinolinecarboxamide]
crystalline form after stirring for 2 days ([6]; THF 0.4 mL): Form I
crystalline form after stirring for 2 days ([6]; THF-water (1:1) 0.4 mL): Form I
crystalline form after stirring for 2 days ([6]; acetone 0.4 mL): Form I
crystalline form after stirring for 2 days ([6]; acetone-water (1:2) 0.4 mL): Form I
crystalline form after stirring for 2 days ([6]; ethanol 0.4 mL): Form I
crystalline form after stirring for 2 days ([6]; ethanol-water (3:1) 0.4 mL): Form I
crystalline form after stirring for 2 days ([6]; ethyl acetate 0.4 mL): Form I
crystalline form after stirring for 2 days ([6]; isopropanol 0.4 mL): Form I
crystalline form after stirring for 2 days ([6]; isopropanol-water (1:1) 0.4 mL): Form I
crystalline form after stirring for 2 days ([6]; methanol 0.4 mL): Form I
crystalline form after stirring for 2 days ([6]; methanol-water (3:1) 0.4 mL): Form I
change of content of related impurities / related substances [4, 11]: no change
crystal transformation [4, 11]: no occurrence of crystal transformation

Structure (SMILES): COc1cc2nccc(Oc3ccc(NC(=O)NC4CC4)c(Cl)c3F)c2cc1C(N)=O [crystalline form II of fluvatinib mesylate] [fluvatinib methanesulfonate]
crystal transformation in ethanol [7, 12]: converted to Form III
crystal transformation in ethanol [7, 13]: transformed into the crystalline form III

Structure (SMILES): COc1cc2nccc(Oc3ccc(NC(=O)NC4CC4)c(Cl)c3F)c2cc1C(N)=O [crystalline form III of fluvatinib mesylate] [fluvatinib methanesulfonate]
hygroscopic weight ([1]; 25° C., 0-90% RH): 0.44%
crystal transformation in ethanol [7, 12]: did not undergo crystal transformation
crystal transformation in ethanol [7, 13]: did not undergo crystal transformation
XRD results ([8]; 1.4-dioxane 1 mL): Form III
XRD results ([8]; acetone 1 mL): Form III
XRD results ([8]; acetonitrile 1 mL): Form III
XRD results ([8]; cyclohexane 1 mL): Form III
XRD results ([8]; dichloromethane 1 mL): Form III
XRD results ([8]; ethanol 1 mL): Form III
XRD results ([8]; ethyl acetate 1 mL): Form III
XRD results ([8]; isopropanol 1 mL): Form III
XRD results ([8]; n-heptane 1 mL): Form III
XRD results ([8]; n-hexane 1 mL): Form III
XRD results ([8]; tetrahydrofuran 1 mL): Form III
crystal transformation under high temperature and high humidity conditions [3]: did not undergo crystal transformation
solubility [9]: better than that of lenvatinib
Stability data in oxygen gas, oxidation ([10]; 20-30° C., 0 hour): 93.66%
Stability data in oxygen gas, oxidation ([10]; 20-30° C., 24 hours): 94.10%
Stability data in oxygen gas, oxidation ([10]; 60° C., 0 hour): 93.61%
Stability data in oxygen gas, oxidation ([10]; 60° C., 24 hours): 94.00%
change of content of related impurities / related substances [4]: no apparent change
crystal transformation [4]: did not show crystal transformation
crystal transformation during the process of preparing tablets [5]: neither the crystalline form I of fluvatinib mesylate nor the crystalline form III of fluvatinib mesylate undergoes crystal transformation
crystal transformation after the tablets being placed for 6 months [5]: no crystal transformation occurred

Structure (SMILES): COc1cc2nccc(Oc3ccc(NC(=O)NC4CC4)c(Cl)c3F)c2cc1C(N)=O [crystalline form V of fluvatinib mesylate] [fluvatinib methanesulfonate]
crystal transformation under high temperature and high humidity conditions [3]: undergone crystal transformation

Second part, led by results:

crystal transformation in ethanol [7, 12]: converted to Form III
crystal transformation under high temperature and high humidity conditions [3]: undergone crystal transformation
Structure (SMILES): COc1cc2nccc(Oc3ccc(NC(=O)NC4CC4)c(Cl)c3F)c2cc1C(N)=O [crystalline form VI of fluvatinib mesylate] [fluvatinib methanesulfonate]
crystal transformation in ethanol [7, 13]: transformed into the crystalline form III

crystal transformation in ethanol [7, 12]: converted to Form III
crystal transformation under high temperature and high humidity conditions [3]: undergone crystal transformation
Structure (SMILES): COc1cc2nccc(Oc3ccc(NC(=O)NC4CC4)c(Cl)c3F)c2cc1C(N)=O [crystalline form VII of fluvatinib mesylate] [fluvatinib methanesulfonate]
crystal transformation in ethanol [7, 13]: transformed into the crystalline form III
